Earlier results on one compound are cited in patent US20070123548A1, “Pth agonists” (priority 2004, published 2007).

The conditions of the series: daily subcutaneous injection for up to 2 years.

As for `CC[C@H](C)[C@H](NC(=O)[C@H](CCC(=O)O)NC(=O)[C@H](CO)NC(=O)[C@@H](NC(=O)[C@@H](N)CO)C(C)C)C(=O)N[C@@H](CCC(N)=O)C(=O)N[C@@H](CC(C)C)C(=O)N[C@@H](CCSC)C(=O)N[C@@H](Cc1cnc[nH]1)C(=O)N[C@@H](CC(N)=O)C(=O)N[C@@H](CC(C)C)C(=O)NCC(=O)N[C@@H](CCCCN)C(=O)N[C@@H](Cc1cnc[nH]1)C(=O)N[C@@H](CC(C)C)C(=O)N[C@@H](CC(N)=O)C(=O)N[C@@H](CO)C(=O)N[C@@H](CCSC)C(=O)N[C@@H](CCC(=O)O)C(=O)N[C@@H](CCCN=C(N)N)C(=O)N[C@H](C(=O)N[C@@H](CCC(=O)O)C(=O)N[C@@H](Cc1c[nH]c2ccccc12)C(=O)N[C@@H](CC(C)C)C(=O)N[C@@H](CCCN=C(N)N)C(=O)N[C@@H](CCCCN)C(=O)N[C@@H](CCCCN)C(=O)N[C@@H](CC(C)C)C(=O)N[C@@H](CCC(N)=O)C(=O)N[C@@H](CC(=O)O)C(=O)N[C@H](C(=O)N[C@@H](Cc1cnc[nH]1)C(=O)N[C@@H](CC(N)=O)C(=O)N[C@@H](Cc1ccccc1)C(=O)O)C(C)C)C(C)C` [PTH(1-34)], the “Reduction of fracture incidence at non-vertebral sites” value is 40% and the “Reduction of fracture incidence at the spine” value is on record as 65%.
